The results in this text go back to patent US7112590B2, “Thrombin inhibitors” (LEK Pharmaceuticals d.d., priority 2000, dated 2006).

The target in one data set is T1, human thrombin (Homo sapiens, UniProt P00734).
T1 construct: Human thrombin (308 NIH; Sigma); purchased Sigma
Description: Determination of thrombin Ki (chromogenic substrate S-2238). It is filed as biochemical. Conditions: for Ki: human thrombin, substrate S-2238, pH 7.5, 25° C.; for Ki trypsin/ Ki thrombin: selectivity: ratio of Ki for trypsin to Ki for thrombin. On the procedure:
(§1) The enzyme inhibitory effect of the compounds can be identified by determination of inhibition constant Ki. It denotes the degree of dissociation of the enzyme-inhibitor complex. Low dissociation constant means high potency of inhibitor. Ki can be determined during reaction of the enzyme with a specific chromogenic substrate which under hydrolysis by the enzyme develops color. Reaction in time is recorded by spectrophotometry and Ki is calculated from kinetic parameters (Vmax, Km, reaction rate).
1. Determination of Thrombin Ki
The ability of a compound to act as an inhibitor of human thrombin catalytic activity was assessed by determination of Ki.
(§2) Buffer: HBSA, pH 7.5 (10 mM Hepes, 150 mM NaCl, 0.1% w/v bovine serum albumin)
Substrate (S-2238: H-D-Phe-Pip-Arg-pNA HCl, 25 mg; Chromogenix): dissolved in distilled water to 1 mM concentration.
Human thrombin (308 NIH; Sigma): dissolved in saline to give a stock solution of 20 NIH/mL.
Inhibitors: were dissolved in DMSO (10 mM stock solution) and diluted with distilled water to working solutions (the highest final concentration of DMSO was 3%).
A mixture of 50 μL of buffer, 50 μL of inhibitor in water (final concentrations from 10 to 100 μM) and 50 μL of thrombin (0.5 NIH U/mL f.c.) was incubated for 15 minutes at room temperature. The reaction was started with 50 μL of S-2238 (20 μM or 40 μM f.c.) and the absorbance of each sample at 405 nm (at 25° C.) was measured in triplicate every 10 seconds for a period of 15 minutes using a microtiter plate reader (Tecan Sunrise).
Thrombin activity was determined from the change in absorbance in the linear part of the velocity graph. Ki was calculated according to Cheng and Prussof (Biochem Pharmacol, 1973) where Ki is IC50/(1+S/Km). The Km for the substrate was determined under the test conditions with at least 6 substrate concentrations varying around Km and calculated with the non-linear regression programme Curve expert.
3. Selectivity to Thrombin
By the use of other serine protease like trypsin with the appropriate chromogenic substrate, selectivity of inhibitors with respect to thrombin was determined. Selectivity of an inhibitor is expressed as a ratio of Ki for trypsin to Ki for thrombin.

For a further data set, the target named is T2, trypsin (UniProt P00760).
T2 construct: Trypsin (6000 E/mg prot; Sigma): dissolved in distilled water to give a stock solution of 300 E/mL
T2 sequence (P00760 1-246): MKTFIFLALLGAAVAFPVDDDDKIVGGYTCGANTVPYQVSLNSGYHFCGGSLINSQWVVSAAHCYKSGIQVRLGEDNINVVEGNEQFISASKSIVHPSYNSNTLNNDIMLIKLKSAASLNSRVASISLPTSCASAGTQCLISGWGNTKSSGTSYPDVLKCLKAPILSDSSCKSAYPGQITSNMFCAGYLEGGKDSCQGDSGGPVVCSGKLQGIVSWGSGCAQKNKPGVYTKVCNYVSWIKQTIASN
Description: Determination of trypsin Ki (chromogenic substrate S-2222). To be noted: substrate S-2222, pH 7.5, 25° C. It is filed as biochemical. On the procedure:
as §1
2. Determination of Trypsin Ki
The ability of a compound to act as an inhibitor of trypsin catalytic activity was assessed by determination of Ki.
as §2
Substrate (S-2222: N-benzoyl-Ile-Glu-Gly-Arg-pNA HCl, 25 mg; Chromogenix): dissolved in distilled water to 2 mM concentration. (Km is 21 μM)
Trypsin (6000 E/mg prot.; Sigma): dissolved in distilled water to give a stock solution of 300 E/mL.
Inhibitors: were dissolved in DMSO (10 mM stock solution) and diluted with distilled water to working solution (the highest final concentration of DMSO was 10%).
50 μL of buffer, 50 μL of test compound in water (final concentrations from 50 to 300 μM) and 50 μL of trypsin (3 mE/mL f.c.) were incubated for 15 minutes at room temperature. The reaction was started with 50 μL of S-2222 (50 μM or 100 μM f.c.) and the absorbance of each sample at 405 nm (at 25° C.) was measured in triplicates every 10 seconds for a period of 15 minutes using a microtiter plate reader (Tecan Sunrise).
Trypsin activity was determined from the change in absorbance in the linear part of velocity graph. Ki was calculated according to Cheng and Prussof (Biochem Pharmacol, 1973) where Ki is, IC50/(1+S/Km). The Km for the substrate was determined under test conditions with at least 6 substrate concentrations varying around Km and calculated with the non-linear regression program Curve expert.

The subject of data set [1] is normal pooled human plasma. Description: Activated partial thromboplastin time (aPTT) coagulation assay. It is filed as biochemical. To be noted: concentration of inhibitor that doubled the clotting time. On the procedure: (§3) The Anticoagulant effect of thrombin inhibitors was measured by thrombin time (TT), activated partial thromboplastin time (aPTT), and prothrombin time (PT) assays. Inhibitors were added to normal pooled human plasma over a range of concentrations and clotting was recorded in an automated coagulometer (Fibrintimer, Dade/Behring). The concentration of inhibitor that doubled the clotting time was determined for each assay.
2. Activated Partial Thromboplastin Time (aPTT)
Incubation of plasma with the optimal quantity of phospholipids and a surface activator leads to activation of factors of the intrinsic coagulation pathway. The addition of calcium ions triggers the coagulation process. The time of fibrin clot formation wass measured. aPTT was used as a screening test for coagulation disorders of the intrinsic coagulation pathway. It is prolonged due to intrinsic coagulation factors deficit or due to the presence of inhibitors.
Pathromtin SL (Dade/Behring): silicon dioxide particles, vegetable phospholipids, sodium chloride (2.4 g/L), Hepes (14.3 g/L, pH 7.6), sodium azide (<1 g/L). The reagent was used at room temperature (15–25° C.).
Calcium chloride solution: 0.025 mol/L, warmed to 37° C.
(§4) Normal pooled plasma: venous blood from 11 apparently healthy volunteers was collected (1 part 0.11 mol/L sodium citrate solution with 9 parts of blood) and centrifuged immediately at 2000×g for 30 minutes at 4° C. Plasma was removed, pooled and stored in aliquots at −70° C. until use.
(§5) Inhibitors: were dissolved in DMSO (10 mM stock solution) and diluted with distilled water to working solutions (the highest concentration 100 μM).
Inhibitor (10 μL working solution, concentrations from 5 μM to 100 μM) and pooled plasma (90 μL) were incubated at 37° C. for 5 minutes. Pathromtin (100 μL) was added and the sample was incubated for another 2 minutes at 37° C. The addition of calcium chloride (100 μL) triggered the coagulation process and clot formation was detected with a coagulometer in duplicate.

Data set [2] deals with normal pooled human plasma. Description: Prothrombin time (PT) coagulation assay. It is filed as biochemical. To be noted: concentration of inhibitor that doubled the clotting time. On the procedure: as §3
An optimal amount of thromboplastin and calcium are added to plasma sample and the time of fibrin clot formation wass measured. PT is a rapid, sensitive screening test for coagulation disorders of the extrinsic pathway. It is well suited for the induction and monitoring of oral anticoagulant therapy, for diagnosing genetic or acquired deficiencies in coagulation factors and checking the synthesis performance of the liver in hepatic diseases. PT is prolonged due to extrinsic coagulation factors deficit or due to the presence of inhibitors.
Thromboplastin (Thromborel S, Dade/Behring): was dissolved in 4 mL of distilled water. Reagent was at 37° C. prior to use at least 30 minutes.
as §4, §5
Inhibitor (10 μL working solution, concentrations from 5 μM to 100 μM) and pooled plasma (90 μL) were incubated at 37° C. for 5 minutes and then Thromborel S (200 μL) was added. Clot formation was measured with a coagulometer in duplicate.

The subject of data set [3] is normal pooled human plasma. Description: Thrombin time (TT) coagulation assay. The format is biochemical. Conditions: concentration of inhibitor that doubled the clotting time, bovine thrombin reagent. On the procedure:
as §3
In a plasma sample thrombin converts fibrinogen into fibrin and the clot is formed. The time for clot formation was measured. Thrombin time is prolonged due to disorders in fibrin polymerisation or due to the presence of thrombin inhibitors.
Thrombin (Test Thrombin Reagent, 1.5 IU/mL, Dade/Behring): lyophilized bovine thrombin was dissolved in 5 mL of HEPES (25 mmol/L, pH 7.4). The reagent was warmed to 37° C. prior to the assay.
as §4, §5
Inhibitors (10 μL working solution, concentrations from 2.5 μM to 100 μM) and pooled plasma (90 μL) were incubated at 37° C. for 5 minutes and then thrombin (200 μL) was added. Clot formation was measured in a coagulometer in duplicate.

Bounds are passed on as bounds.

As a reminder, the Ki is the dissociation constant of the complex between target and ligand, obtained from inhibition or displacement. A lower Ki goes with tighter binding. In the case of `O=C(O)CN[C@H](CC1CCCCC1)C(=O)N1CCC[C@H]1C(=O)NCC1CCc2n[nH]cc2C1` (some centres unmarked), on human thrombin, the Ki came out at 0.28 µM and the “Ki trypsin/ Ki thrombin” value came to 70.6. The same compound yielded an inhibition constant Ki at trypsin of 19.9 µM. In addition, in data set [1], the aPTT was 28 µM. Also, the PT in data set [2] came out at 55.3 µM. In addition, the TT in data set [3] was determined as 4.9 µM.
As for `NC(C(=O)N1CCCC1C(=O)NCC1CCc2n[nH]cc2C1)C(c1ccccc1)c1ccccc1` (centres unmarked), on trypsin, the affinity, expressed as Ki, was 217 µM.
By melting point is commonly meant the temperature of the solid-liquid transition. In turn, `CC(C)(C)OC(=O)N[C@@H](C(=O)N1CCC[C@H]1C(=O)NCC1CCc2n[nH]cc2C1)C(c1ccccc1)c1ccccc1` (stereo partly drawn) [Example 64, tert-Butyl (1R)-1-benzhydryl-2-oxo-2-((2S)-2-{[(4,5,6,7-tetrahydro-2H-indazol-5-ylmethyl)amino]carbonyl}pyrrolidinyl)ethylcarbamate] registered a melting point of 113 to 116 °C.
Same read-out and setting: the result for `CC(C)(C)OC(=O)N[C@@H](C(=O)N1CCC[C@H]1C(=O)NCC1CCc2nc(N)ncc2C1)C(c1ccccc1)c1ccccc1` (stereo partly drawn) [Example 67, tert-Butyl (1R)-2-[(2S)-2-({[(2-amino-5,6,7,8-tetrahydro-6-quinazolinyl)methyl]amino}carbonyl)pyrrolidinyl]-1-benzhydryl-2-oxoethylcarbamate] reads 127 to 130 °C.
The same measure, in the same setting: as for `Nc1nc2c(s1)CC(CNC(=O)[C@@H]1CCCN1C(=O)[C@@H](CC1CCCCC1)NS(=O)(=O)Cc1ccccc1)CC2` (stereo partly drawn) [Example 69, (2S)-N-[(2-Amino-4,5,6,7-tetrahydro-1,3-benzothiazol-6-yl)methyl]-1-{(2R)-2-[(benzylsulfonyl)amino]-3-cyclohexylpropanoyl}-2-pyrrolidinecarboxamide], the figure is 203 to 205 °C.
Same read-out and setting: as for `CC(C)(C)OC(=O)CN(C(=O)OC(C)(C)C)[C@H](CC1CCCCC1)C(=O)N1CCC[C@H]1C(=O)NC1CCc2nc(N)sc2C1` (stereo partly drawn) [Example 70, tert-Butyl 2-[[(1R)-2-((2S)-2-{[(2-amino-4,5,6,7-tetrahydro-1,3-benzothiazol-6-yl)amino]carbonyl}pyrrolidinyl)-1-(cyclohexylmethyl)-2-oxoethyl](tert-butoxycarbonyl)amino]acetate], the figure is 95 to 101 °C.
As to `Nc1nc2c(s1)CC(NC(=O)[C@@H]1CCCN1C(=O)[C@@H](CC1CCCCC1)NS(=O)(=O)Cc1ccccc1)CC2` (some centres unmarked) [drawing 91], the inhibition constant Ki on human thrombin was 0.12 µM; at trypsin, greater than 68.3 µM. For the same compound, the “Ki trypsin/ Ki thrombin” value at human thrombin is greater than 569. The aPTT in data set [1] is 59 µM. In data set [2], the PT came out at 114 µM. In addition, in data set [3], the TT amounted to 15 µM.
With `O=C(NCC1CCc2n[nH]cc2C1)[C@@H]1CCCN1C(=O)[C@@H](CC1CCCCC1)NS(=O)(=O)Cc1ccccc1` (some centres unmarked) [drawing 92], at human thrombin, the affinity corresponds to a Ki of 0.14 µM and the “Ki trypsin/ Ki thrombin” value came to 1267. On trypsin, the inhibition constant Ki amounted to 177 µM. The same compound displayed an aPTT in data set [1] of 42.3 µM. In addition, the PT in data set [2] is 78.3 µM. Also, in data set [3], the TT is 11 µM.
Regarding `Nc1nc2c(s1)CC(CNC(=O)[C@@H]1CCCN1C(=O)[C@@H](CC1CCCCC1)NS(=O)(=O)Cc1ccccc1)CC2` (some centres unmarked) [drawing 95], at human thrombin, the inhibitory constant (Ki) stood at 0.37 µM and the “Ki trypsin/ Ki thrombin” value is listed as 107.8. Also, at trypsin, the Ki was 39.9 µM. In addition, in data set [1], the aPTT turned out to be 64 µM. Besides, the PT in data set [2] was 95.3 µM. Besides, the TT in data set [3] turned out to be 15.8 µM.
Consider `Nc1nc2c(s1)CC(NC(=O)[C@@H]1CCCN1C(=O)[C@@H](Cc1ccccc1)NS(=O)(=O)Cc1ccccc1)CC2` (some centres unmarked) [drawing 96], for which the Ki on human thrombin is 0.62 µM; on trypsin, greater than 68.3 µM. Also, the “Ki trypsin/ Ki thrombin” value at human thrombin is greater than 110. Moreover, the aPTT in data set [1] was found to be 332 µM. For the same compound, the PT in data set [2] was 578 µM. Also, in data set [3], the TT is 84 µM.
